What was measured:
Assay in all cases: KinaseProfiler in vitro kinase panel ([…] human kinases), single concentration […]
Format in all cases: biochemical
p70S6K = biological target: T1, p70S6K (Homo sapiens, UniProt P23443)
T1 construct: gene RPS6KB1

PKA = biological target: T2, PKA (Homo sapiens, UniProt P17612)
T2 construct: gene PRKACA

PKG1α = biological target: T3, PKG1α (Homo sapiens, UniProt Q13976)
T3 construct: gene PRKG1
T3 sequence (Q13976 2-671): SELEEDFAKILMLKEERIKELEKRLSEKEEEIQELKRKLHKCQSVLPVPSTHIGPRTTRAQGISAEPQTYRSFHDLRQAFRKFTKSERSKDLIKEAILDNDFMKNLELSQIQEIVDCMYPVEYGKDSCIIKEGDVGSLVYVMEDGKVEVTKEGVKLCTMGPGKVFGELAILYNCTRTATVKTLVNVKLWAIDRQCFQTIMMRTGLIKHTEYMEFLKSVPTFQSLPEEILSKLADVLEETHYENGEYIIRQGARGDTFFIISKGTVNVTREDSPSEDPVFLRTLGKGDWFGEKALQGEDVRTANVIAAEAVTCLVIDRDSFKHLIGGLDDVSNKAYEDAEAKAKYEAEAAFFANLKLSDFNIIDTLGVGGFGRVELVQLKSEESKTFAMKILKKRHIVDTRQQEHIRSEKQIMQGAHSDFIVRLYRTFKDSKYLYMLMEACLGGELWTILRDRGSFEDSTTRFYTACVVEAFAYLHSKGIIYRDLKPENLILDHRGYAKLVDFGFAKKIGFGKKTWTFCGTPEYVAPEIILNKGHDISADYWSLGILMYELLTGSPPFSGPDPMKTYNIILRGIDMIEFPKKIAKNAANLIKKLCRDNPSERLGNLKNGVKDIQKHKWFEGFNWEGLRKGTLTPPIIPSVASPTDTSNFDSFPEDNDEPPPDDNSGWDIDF

ROCK-I = biological target: T4, ROCK-I (Homo sapiens, UniProt Q13464)
T4 construct: gene ROCK1
T4 sequence (Q13464 2-1354): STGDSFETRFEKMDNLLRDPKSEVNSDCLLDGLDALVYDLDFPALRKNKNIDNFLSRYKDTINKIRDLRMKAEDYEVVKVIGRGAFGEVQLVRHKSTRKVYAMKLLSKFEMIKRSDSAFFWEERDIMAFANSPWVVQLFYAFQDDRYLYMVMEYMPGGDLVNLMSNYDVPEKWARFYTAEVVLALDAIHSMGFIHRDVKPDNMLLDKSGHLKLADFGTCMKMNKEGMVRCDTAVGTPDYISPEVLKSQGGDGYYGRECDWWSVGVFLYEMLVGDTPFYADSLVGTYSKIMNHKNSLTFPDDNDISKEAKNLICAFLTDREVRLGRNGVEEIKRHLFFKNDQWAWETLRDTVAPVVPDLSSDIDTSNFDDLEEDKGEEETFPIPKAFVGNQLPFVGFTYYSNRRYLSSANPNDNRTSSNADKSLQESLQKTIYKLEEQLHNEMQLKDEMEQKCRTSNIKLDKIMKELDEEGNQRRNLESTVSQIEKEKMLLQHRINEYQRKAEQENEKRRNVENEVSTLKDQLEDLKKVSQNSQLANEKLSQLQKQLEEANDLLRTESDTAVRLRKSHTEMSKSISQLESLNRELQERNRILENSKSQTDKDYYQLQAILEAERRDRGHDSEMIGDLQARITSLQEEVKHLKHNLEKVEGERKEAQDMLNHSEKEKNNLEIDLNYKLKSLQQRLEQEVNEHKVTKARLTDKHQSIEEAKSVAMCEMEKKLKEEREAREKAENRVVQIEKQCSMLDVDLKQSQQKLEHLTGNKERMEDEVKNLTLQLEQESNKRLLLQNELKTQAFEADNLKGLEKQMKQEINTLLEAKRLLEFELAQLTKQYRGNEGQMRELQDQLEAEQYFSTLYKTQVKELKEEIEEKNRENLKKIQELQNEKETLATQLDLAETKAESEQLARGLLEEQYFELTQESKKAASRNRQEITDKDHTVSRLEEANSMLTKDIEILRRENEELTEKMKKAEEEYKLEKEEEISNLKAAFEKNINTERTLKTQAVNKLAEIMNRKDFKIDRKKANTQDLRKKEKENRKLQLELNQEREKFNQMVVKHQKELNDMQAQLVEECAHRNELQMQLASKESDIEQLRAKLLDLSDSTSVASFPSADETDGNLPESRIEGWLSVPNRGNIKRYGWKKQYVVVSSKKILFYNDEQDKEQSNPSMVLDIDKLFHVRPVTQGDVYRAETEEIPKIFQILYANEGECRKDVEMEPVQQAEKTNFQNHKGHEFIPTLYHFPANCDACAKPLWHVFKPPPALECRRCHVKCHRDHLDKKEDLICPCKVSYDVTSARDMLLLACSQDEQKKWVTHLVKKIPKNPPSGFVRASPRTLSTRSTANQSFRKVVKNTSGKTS

T1 sequence (P23443 whole entry): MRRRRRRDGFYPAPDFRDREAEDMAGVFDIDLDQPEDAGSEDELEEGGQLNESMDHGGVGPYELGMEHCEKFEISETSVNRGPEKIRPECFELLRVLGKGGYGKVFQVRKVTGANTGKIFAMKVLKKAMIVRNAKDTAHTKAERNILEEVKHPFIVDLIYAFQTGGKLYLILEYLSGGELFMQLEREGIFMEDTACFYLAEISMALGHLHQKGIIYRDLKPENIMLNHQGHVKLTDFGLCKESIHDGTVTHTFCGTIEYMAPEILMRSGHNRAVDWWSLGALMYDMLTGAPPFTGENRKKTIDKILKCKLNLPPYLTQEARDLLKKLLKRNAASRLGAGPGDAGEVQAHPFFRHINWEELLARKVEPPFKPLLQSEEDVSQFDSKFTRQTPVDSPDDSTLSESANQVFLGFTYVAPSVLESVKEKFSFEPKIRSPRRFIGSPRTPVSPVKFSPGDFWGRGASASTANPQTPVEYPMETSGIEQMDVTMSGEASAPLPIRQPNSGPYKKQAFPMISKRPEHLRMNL

inhibition at 5 µM (p70S6K): > 75%
inhibition at 5 µM (PKA): > 75%
inhibition at 5 µM (PKG1α): > 75%
inhibition at 5 µM (ROCK-I): > 75%
Structure (SMILES): COc1cc(NC(=O)C2COc3ccccc3C2)ccc1-c1cnco1 (stereo not shown) [CompA, CompoundA]
